Source: US11214803B2, “Modulators of YAP1 expression” (Ionis Pharmaceuticals, Inc., priority 2019, dated 2022)
Strand notation (5' to 3'): a small letter for the sugar, then the base; units joined by * are phosphorothioate-linked, units joined directly phosphodiester-linked; [ ] holds rarer units or linkages, { } end groups; capitals alone tell only the bases. k = constrained ethyl (cEt); [5mC] = 5-methylcytosine; d = 2'-deoxy (DNA)

Test system: Yap1 mRNA
Assay: Antisense inhibition of human Yap1 in A-431 cells by cEt gapmers, single dose (Example 3, RTS36584)
Format: cell-based
Method in brief: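 A-431 cells (5,000/well) took up the 3-10-3 cEt gapmers by free uptake at 2,000 nM for about 48 h. Yap1 mRNA was measured by RT-qPCR with primer probe set RTS36584, normalized to RiboGreen total RNA, and given as % of untreated control.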

[1] = Table 8, A-431 cells, 5,000 cells per well, free uptake, 2,000 nM, approximately 48 hours, RTS36584, normalized to RIBOGREEN, Yap1 mRNA relative to untreated control cells
[2] = Table 34, Yap1 mRNA as percent of untreated control, 3-10-3 cEt gapmers targeting SEQ ID NO: 1 and 2, single dose
[3] = Table 26, Yap1 mRNA by 3-10-3 cEt gapmers targeting SEQ ID NO.: 1, and 2, percent of untreated control
[4] = Table 13, A-431 cells, 5,000 cells per well, free uptake, 2,000 nM modified oligonucleotide, approx. 48 hours, RTS36584, normalized to RIBOGREEN, Yap1 mRNA relative to untreated control cells
[5] = Table 12, A-431 cells, 5,000 cells per well, free uptake, 2,000 nM modified oligonucleotide, approx. 48 hours, RTS36584, normalized to RIBOGREEN, Yap1 mRNA relative to untreated control cells
[6] = Table 35, Yap1 mRNA as percent of untreated control, 3-10-3 cEt gapmers targeting SEQ ID NO: 1 and 2, single dose
[7] = Table 28, Yap1 mRNA as percent of untreated control, 3-10-3 cEt gapmers targeting SEQ ID NO.: 1, and 2

958365 (antisense kG*k[5mC]*k[5mC]*dA*dT*dG*dT*dT*dG*dT*dT*dG*dT*k[5mC]*kT*kG) [Compound 958365]
YAP1 (% UTC) [1]: 34 % UTC

1075188 (kA*kG*kT*d[5mC]*dA*dA*d[5mC]*d[5mC]*dT*dG*dT*dA*dA*kT*kT*kA; antisense) [compound 1075188]
YAP1 (% UTC) [2]: 14 % UTC

1074668 (antisense kT*k[5mC]*k[5mC]*d[5mC]*dA*dA*d[5mC]*dA*dA*d[5mC]*dA*dT*dG*k[5mC]*kT*kA) [compound 1074668]
YAP1 (% UTC) [3]: 20 % UTC

958670 (kG*kG*kT*d[5mC]*dT*dT*dG*dG*dT*dG*dA*dT*dT*kG*kG*k[5mC]; antisense) [Compound 958670]
YAP1 (% UTC) [4]: 20 % UTC

1076044 (kA*kT*k[5mC]*dA*dA*dA*dA*dA*dG*dG*d[5mC]*dT*dA*kT*kT*kG; antisense) [compound 1076044]
YAP1 (% UTC) [3]: 73 % UTC

958547 (k[5mC]*kA*k[5mC]*dA*dT*dA*d[5mC]*dT*d[5mC]*dT*dA*dG*dT*kT*kA*k[5mC]; antisense) [Compound 958547]
YAP1 (% UTC) (Table 10, A-431 cells, 5,000 cells per well, free uptake, 2,000 nM oligonucleotide, approx. 48 hours, primer probe set RTS36584, Yap1 mRNA normalized to RIBOGREEN, percent of untreated control): 4 % UTC

958509 (kA*kT*kG*dT*dT*dA*dT*dG*dT*dT*dT*dG*dG*kG*kT*kG; antisense) [Compound 958509]
YAP1 (% UTC) [5]: 4 % UTC

958755 (antisense kT*kA*kA*d[5mC]*dA*dT*dA*dA*dG*dA*d[5mC]*dA*d[5mC]*kG*kG*kA) [Compound 958755]
YAP1 (% UTC) [4]: 12 % UTC

958525 (kA*kT*kG*dA*dA*dG*dG*dT*dA*dA*dA*d[5mC]*d[5mC]*kA*k[5mC]*kT; antisense) [Compound 958525]
YAP1 (% UTC) [4]: 3 % UTC

958750 (antisense kT*kG*kT*dA*dA*dG*dA*dG*dG*dA*dG*dA*d[5mC]*k[5mC]*kA*k[5mC]) [Compound 958750]
YAP1 (% UTC) [4]: 28 % UTC

1074317 (antisense kG*kA*kG*dA*dA*dT*dT*dT*dG*d[5mC]*dT*dG*dT*kG*k[5mC]*kT) [compound 1074317]
YAP1 (% UTC) (Table 27, Yap1 mRNA by 3-10-3 cEt gapmers targeting SEQ ID NO.: 1, and 2, percent of untreated control): 12 % UTC

1074293 (antisense kG*k[5mC]*kT*dG*dT*dT*dT*d[5mC]*dA*d[5mC]*dT*dG*dG*kA*kG*k[5mC]) [compound 1074293]
YAP1 (% UTC) [6]: 54 % UTC

1074542 (kA*kG*kG*d[5mC]*dA*d[5mC]*dT*dA*dT*d[5mC]*d[5mC]*dA*d[5mC]*kA*kG*kT; antisense) [compound 1074542]
YAP1 (% UTC) [7]: 21 % UTC

1074540 (kA*k[5mC]*kT*dA*dT*d[5mC]*d[5mC]*dA*d[5mC]*dA*dG*dT*dA*kA*kT*kA; antisense) [compound 1074540]
YAP1 (% UTC) [3]: 26 % UTC

958654 (kA*kA*kT*dG*dG*dA*dG*dT*dG*dG*d[5mC]*d[5mC]*dG*kG*kG*k[5mC]; antisense) [Compound 958654]
YAP1 (% UTC) [5]: 110 % UTC

958513 (kG*k[5mC]*kG*d[5mC]*dT*dA*d[5mC]*d[5mC]*dA*dT*dT*dT*dT*kA*kA*kA; antisense) [Compound 958513]
YAP1 (% UTC) (Table 11, A-431 cells, 5,000 cells per well, free uptake, 2,000 nM oligonucleotide, approx. 48 hours, primer probe set RTS36584, Yap1 mRNA normalized to RIBOGREEN, percent of untreated control): 104 % UTC

1075509 (k[5mC]*kA*kT*dA*dA*dT*d[5mC]*d[5mC]*d[5mC]*dT*dG*dA*d[5mC]*kT*kT*kG; antisense) [compound 1075509]
YAP1 (% UTC) [6]: 81 % UTC

1076404 (antisense kT*kA*kT*dT*dT*dA*dA*dG*dA*d[5mC]*d[5mC]*dT*dG*kG*kT*kG) [compound 1076404]
YAP1 (% UTC) [2]: 13 % UTC

958349 (k[5mC]*k[5mC]*kG*dA*dG*dT*d[5mC]*d[5mC]*d[5mC]*d[5mC]*dG*d[5mC]*dG*kG*kA*k[5mC]; antisense) [Compound 958349]
YAP1 (% UTC) [1]: 81 % UTC

1075758 (kG*kT*kA*dA*dT*dT*dT*dA*dA*dT*dA*dG*dA*k[5mC]*kT*kA; antisense) [compound 1075758]
YAP1 (% UTC) [7]: 73 % UTC

1075279 (antisense k[5mC]*kT*kA*dT*dA*d[5mC]*dT*dA*dA*d[5mC]*dA*dT*dT*k[5mC]*kA*k[5mC]) [compound 1075279]
YAP1 (% UTC) (Table 29, Yap1 mRNA as percent of untreated control, 3-10-3 cEt gapmers targeting SEQ ID NO.: 1, and 2): 52 % UTC

958820 (kG*kA*k[5mC]*d[5mC]*dA*dG*dT*dA*dA*dG*dA*dA*dG*k[5mC]*k[5mC]*kA; antisense) [Compound 958820]
YAP1 (% UTC) [4]: 49 % UTC
